The term LOAEL denotes the lowest tested level that showed an adverse finding. What is called NOAEL is the highest dose or exposure tested at which no adverse effect was seen.

Molecules are shown by their SMILES.

The subject of data set [1] is rat. The following applies: Sub-acute repeat dose toxicity; Oral; Gavage/Intubation; dose end: 10 day; group: systemic; systemic / in life observation / clinical signs / compulsive biting or licking + systemic / in life observation / clinical signs / ….
The test system of data set [2] is dog. As to conditions: Sub-acute repeat dose toxicity, beagle, Oral, Gavage/Intubation, dose end: 10 day, group: systemic.
Data set [3] concerns rat. As to conditions: Sub-acute repeat dose toxicity, sprague dawley, Oral, Gavage/Intubation, dose end: 13 day, group: systemic.
Data set [4] has as its system dog. The following applies: Sub-acute repeat dose toxicity; beagle; Oral; Gavage/Intubation; dose end: 29 day; group: systemic; systemic / in life observation / clinical signs / defecation (diarrhea) + systemic / in life observation / clinical signs / emesis + ….
Data set [5] deals with dog. As to conditions: Sub-acute repeat dose toxicity, beagle, Oral, Gavage/Intubation, dose end: 7 day, group: systemic.
Data set [6] deals with rat. The following applies: Sub-acute repeat dose toxicity, sprague dawley, Oral, Gavage/Intubation, dose end: 29 day, group: systemic.
Data set [7] concerns dog. The following applies: Sub-acute repeat dose toxicity, beagle, Oral, Gavage/Intubation, dose end: 1 month, group: systemic.
Data set [8] concerns mouse. The following applies: Subchronic oral toxicity in rodents, b6c3f1, Gavage/Intubation, dose end: 13 week, group: systemic.
The test system of data set [9] is rat. As to conditions: Carcinogenicity, fischer, Oral, Gavage/Intubation, dose end: 103 week, group: systemic.
In data set [10] the test system is rat. As to conditions: Subchronic oral toxicity in rodents, fischer, Gavage/Intubation, dose end: 13 week, group: systemic.
Data set [11] relates to rat. The following applies: Prenatal developmental toxicity study, long evans, Oral, Gavage/Intubation, dose end: 15 GD.
Data set [12] concerns rabbit. As to conditions: Prenatal developmental toxicity study; new zealand white; Dermal; Topical; dose end: 18 GD; group: maternal; systemic / in life observation / clinical signs / [other].
Data set [13] relates to rat. As to conditions: Prenatal developmental toxicity study; sprague dawley; Dermal; Topical; dose end: 15 GD; group: maternal; systemic / in life observation / body weight / body weight gain + systemic / in life observation / clinical signs / [other].
Data set [14] relates to dog. The following applies: Sub-acute repeat dose toxicity, beagle, Oral, Capsule, dose end: 5 week, group: systemic.
For data set [15], the system named is dog. The following applies: Other (NonGuideline or Guideline Not Listed); beagle; Oral; Capsule; dose end: 3 day; group: cannot be grouped; systemic / in life observation / clinical signs / emesis.
Data set [16] relates to rat. As to conditions: Subchronic oral toxicity in rodents, wistar, Feed, dose end: 3 month, group: systemic.
For data set [17], the system named is rat. The following applies: Prenatal developmental toxicity study, other, Oral, Gavage/Intubation, dose end: 15 GD.
Data set [18] has as its system rat. As to conditions: Combined chronic toxicity/carcinogenicity; other; Oral; Feed; dose end: 2 year; group: systemic; systemic / clinical chemistry / alanine aminotransferase (alt/sgpt) / alanine aminotransferase (alt/sgpt) + systemic / clinical chemistry / ….
Data set [19] deals with mouse. The following applies: Combined chronic toxicity/carcinogenicity; other; Oral; Feed; dose end: 24 month; group: systemic; systemic / clinical chemistry / alanine aminotransferase (alt/sgpt) / alanine aminotransferase (alt/sgpt) + systemic / clinical chemistry / ….
The test system of data set [20] is rat. The following applies: Subchronic oral toxicity in rodents, sprague dawley, Feed, dose end: 13 week, group: systemic.
Data set [21] has as its system dog. As to conditions: Subchronic oral toxicity in nonrodent, beagle, Feed, dose end: 90 day, group: systemic, systemic / clinical chemistry / alkaline phosphatase (alp/alk) / alkaline phosphatase (alp/alk) + systemic / in life observation / body ….
The test system of data set [22] is dog. The following applies: Chronic toxicity, beagle, Oral, Feed, dose end: 104 week, group: systemic.
The mark [23] stands for this setting: systemic / in life observation / body weight / body weight + systemic / in life observation / clinical signs / altered breathing rate + ….
The mark [24] stands for this setting: systemic / in life observation / clinical signs / salivation + systemic / in life observation / clinical signs / emesis.
The mark [25] stands for this setting: systemic / in life observation / body weight / body weight + systemic / in life observation / clinical signs / lacrimation + systemic / in ….
Setting [26] is: systemic / organ weight / kidney / absolute + systemic / organ weight / liver / absolute + systemic / organ weight / spleen / absolute + ….
The mark [27] stands for this setting: systemic / in life observation / body weight / body weight + systemic / in life observation / food consumption / food consumption + systemic….
Where [28] appears, read: systemic / in life observation / clinical signs / emesis.
Setting [29] is: systemic / in life observation / clinical signs / salivation + systemic / organ weight / liver / absolute + systemic / in life observation….
Where [30] appears, read: systemic / in life observation / clinical signs / defecation (diarrhea) + systemic / in life observation / clinical signs / feces, ….
Where [31] appears, read: systemic / in life observation / clinical signs / feces, discoloration.
[32] abbreviates: systemic / in life observation / mortality / mortality + systemic / pathology microscopic / kidney / degeneration + systemic / pathology ….
Where [33] appears, read: systemic / pathology microscopic / kidney / hyperplasia + systemic / pathology microscopic / kidney / nephropathy.
The mark [34] stands for this setting: systemic / pathology microscopic / kidney / hyperplasia + systemic / pathology microscopic / kidney / nephropathy + systemic / in life ….
[35] abbreviates: systemic / in life observation / clinical signs / defecation (diarrhea) + systemic / in life observation / clinical signs / lethargy + ….
Where [36] appears, read: group: developmental, developmental / developmental malformation / bone / irregular ossification + developmental / developmental malformation / general / runts + ….
Where [37] appears, read: group: developmental, developmental / developmental malformation / bone / irregular ossification + developmental / developmental malformation / kidney / ….
Where [38] appears, read: group: maternal, systemic / in life observation / clinical signs / [other] + systemic / in life observation / clinical signs / hyperactivity + reproductive….
[39] abbreviates: systemic / clinical chemistry / cholesterol / cholesterol + systemic / hematology / erythrocyte (rbc) count differential / erythrocyte (rbc….
The mark [40] stands for this setting: systemic / pathology microscopic / testes / degeneration.
Where [41] appears, read: systemic / clinical chemistry / glutamate dehydrogenase / glutamate dehydrogenase.
Setting [42] is: systemic / clinical chemistry / glutamate dehydrogenase / glutamate dehydrogenase + systemic / clinical chemistry / cholesterol / ….
[43] abbreviates: group: developmental, developmental / developmental malformation / bone / full supernumerary.
[44] abbreviates: group: developmental, developmental / developmental malformation / bone / full supernumerary + developmental / developmental malformation / kidney / dilated renal….
[45] abbreviates: group: maternal, systemic / in life observation / body weight / body weight gain + systemic / in life observation / clinical signs / alopecia + systemic / in….
Setting [46] is: systemic / clinical chemistry / fatty acids / non-esterified (free) fatty acids + systemic / clinical chemistry / triglycerides / ….
The mark [47] stands for this setting: systemic / clinical chemistry / aminopyrine-n-demethylase / aminopyrine-n-demethylase.
[48] abbreviates: systemic / clinical chemistry / aminopyrine-n-demethylase / aminopyrine-n-demethylase + systemic / clinical chemistry / cytochrome p450, nos….

Consider `CC(N)c1cc(F)ccc1Oc1ccc(Cl)c(Cl)c1` (stereo unspecified), for which, in data set [1], the LEL stood at 3 mg/kg/day, the LOAEL was more than 150 mg/kg/day, the NEL was less than 3 mg/kg/day and the NOAEL was not below 150 mg/kg/day. Also, in [2] (setting [23]), the LOAEL was more than 100 mg/kg/day and the NOAEL was not below 100 mg/kg/day. In addition, in data set [2] (setting [24]), the LEL was 3 mg/kg/day and the NEL was less than 3 mg/kg/day.
For the compound `CN[C@H]1CC[C@@H](c2ccc(Cl)c(Cl)c2)c2ccc(S(N)(=O)=O)cc21`, the LOAEL in [3] (setting [25]) was more than 320 mg/kg/day; in data set [4] it was more than 60 mg/kg/day; in data set [5] (setting [27]), more than 160 mg/kg/day; in [6] (setting [29]) it was more than 60 mg/kg/day. The NOAEL in data set [3] (setting [25]) was not below 320 mg/kg/day; in data set [4], not below 60 mg/kg/day; in data set [5] (setting [27]), not below 160 mg/kg/day; in data set [6] (setting [29]), not below 60 mg/kg/day. Moreover, the LEL amounted to 40 mg/kg/day in [3] (setting [26]), 5 mg/kg/day in data set [4], 40 mg/kg/day in data set [5] (setting [28]) and 60 mg/kg/day in data set [6] (setting [29]). In addition, the NEL in data set [3] (setting [26]) was less than 40 mg/kg/day; in [4] it was less than 5 mg/kg/day; in data set [5] (setting [28]), 20 mg/kg/day; in data set [6] (systemic / in life observation / clinical signs / salivation + systemic / organ weight / liver / absolute), 20 mg/kg/day.
`COc1ccc(C(=O)Nc2nc3ccccc3c(NCc3ccccc3)c2C#N)cc1`: in data set [7] (setting [30]), the LOAEL worked out at 1500 mg/kg/day and the NOAEL worked out at 750 mg/kg/day. In data set [7] (setting [31]), this compound returned an LEL of 300 mg/kg/day and an NEL of less than 300 mg/kg/day.
Regarding `Nc1cc([N+](=O)[O-])ccc1O` [2-Amino-4-nitrophenol], the LEL in data set [8] (systemic / in life observation / mortality / mortality) was 500 mg/kg/day; in data set [9] (setting [34]) it was 125 mg/kg/day; in data set [10] (systemic / organ weight / liver / absolute) it was 250 mg/kg/day. Also, the figures for the LOAEL in data set [8] (setting [32]), in [9] (setting [33]) and in [10] (setting [35]) were more than 1000 mg/kg/day, 125 mg/kg/day and more than 1000 mg/kg/day, respectively. The NEL is 250 mg/kg/day in [8] (setting [32]), less than 125 mg/kg/day in data set [9] (setting [34]) and 125 mg/kg/day in [10] (setting [35]). For the same compound, the NOAEL in data set [8] (setting [32]) was not below 1000 mg/kg/day; in [9] (setting [33]), less than 125 mg/kg/day; in data set [10] (setting [35]), not below 1000 mg/kg/day.
Regarding `NCCO` [Ethanolamine], the LOAEL is more than 500 mg/kg/day in data set [11] (setting [36]), more than 500 mg/kg/day in data set [11] (setting [38]), more than 75 mg/kg/day in data set [12] and more than 225 mg/kg/day in data set [13]. Moreover, the NOAEL in [11] (setting [36]) was not below 500 mg/kg/day; in [11] (setting [38]), not below 500 mg/kg/day; in data set [12], not below 75 mg/kg/day; in [13], not below 225 mg/kg/day. Also, the LEL in [11] (setting [37]) was 50 mg/kg/day; in data set [11] (setting [38]), 500 mg/kg/day; in data set [12], 75 mg/kg/day; in data set [13] it was 225 mg/kg/day. Moreover, the NEL was less than 50 mg/kg/day in data set [11] (setting [37]); 300 mg/kg/day in [11] (group: maternal, systemic / in life observation / clinical signs / [other] + systemic / in life observation / clinical signs / hyperactivity); 25 mg/kg/day in [12]; 75 mg/kg/day in [13].
`NC(=O)c1nc(-c2cccc(-c3cc(F)ccc3OCC(F)(F)C(F)(F)F)c2)n[n-]1.O.[K+]` [MK-274]: in data set [14] (setting [39]), the LOAEL was more than 450 mg/kg/day and the NOAEL was not below 450 mg/kg/day. In data set [14] (setting [40]), the LEL came out at 10 mg/kg/day and the NEL is less than 10 mg/kg/day. In data set [15], this compound came in with an LEL of 240 mg/kg/day, an LOAEL of more than 400 mg/kg/day, an NEL of less than 240 mg/kg/day and an NOAEL not below 400 mg/kg/day.
Take `CC(C)(C)C(O)C(Oc1ccc(Cl)cc1)n1cncn1` (stereo unspecified) [Triadimenol]: the LEL in [16] (setting [41]) amounted to 30 mg/kg/day; in data set [17] (setting [43]) it was 60 mg/kg/day; in data set [17] (group: maternal, systemic / in life observation / body weight / body weight gain + systemic / in life observation / food consumption / food consumption) it was 15 mg/kg/day; in data set [18], 25 mg/kg/day; in data set [19], 71.4 mg/kg/day; in data set [20] (systemic / organ weight / liver / absolute + systemic / organ weight / liver / relative to body weight + systemic / pathology microscopic / …), 39.6 mg/kg/day. Also, the LEL in data set [21] came out at 44.2 mg/kg/day; in data set [22] (setting [47]), 211 mg/kg/day. The LOAEL is 30 mg/kg/day in [16] (setting [41]); 60 mg/kg/day in data set [17] (setting [43]); 15 mg/kg/day in [17] (group: maternal, systemic / in life observation / body weight / body weight gain); 25 mg/kg/day in [18]; 71.4 mg/kg/day in [19]; 208 mg/kg/day in data set [20] (setting [46]). In addition, the LOAEL amounted to 44.2 mg/kg/day in [21] and 211 mg/kg/day in data set [22] (setting [47]). Also, the NEL in [16] (setting [42]) is 7.5 mg/kg/day; in data set [17] (setting [44]), 25 mg/kg/day; in data set [17] (setting [45]), 5 mg/kg/day; in [18], 6.25 mg/kg/day; in [19], 17.9 mg/kg/day; in [20] (setting [46]), 8 mg/kg/day. In addition, the NEL in data set [21] was less than 44.2 mg/kg/day; in [22] (setting [48]) it was 56 mg/kg/day. Moreover, the NOAEL in [16] (setting [42]) amounted to 7.5 mg/kg/day; in [17] (setting [44]), 25 mg/kg/day; in [17] (setting [45]), 5 mg/kg/day; in [18], 6.25 mg/kg/day; in [19] it was 17.9 mg/kg/day; in data set [20] (setting [46]), 39.6 mg/kg/day. The results for the NOAEL in data set [21] and in [22] (setting [48]) were less than 44.2 mg/kg/day and 56 mg/kg/day, respectively.
